The test system of series [1] is human esophageal squamous 81T/VGH cells. Nature of the series: MTT cell viability, growth inhibition on esophageal squamous cells. It is filed as cell-based. The conditions noted are these: for Inhibition (%): 81T/VGH cells; for ex vivo growth of esophageal cancerous cells inhibited: time not stated. The procedure: (§1) Cell lines used in the present disclosure include human chronic is myelogenous leukemia (CML) cell line K562, erythroleukemia HEL cells, human pancreatic carcinoma epithelial-like cell line PANC-1, human esophageal squamous cell carcinoma line 81T/VGH, human esophageal adenocarcinoma line BE-3 and human esophageal adenocarcinoma cell line SKGT4. Each cell lines were cultured and maintained in Dulbecco's modified Eagle media (DMEM) supplemented with 10% fetal calf serum, 100 IU/ml penicillin, 100 μg/ml streptomycin, and 2 mM glutamine in 5% CO2 at 37° C.
(§2) The absorbance of the solution at 570 nm was measured by spectrophotometer.
Effects of the compounds of formula (I) of this disclosure, particularly, EN 22, EN 24, and EN 25, on 81T/VGH cells were assessed by cell viability analysis in accordance with procedures described above.

Series [2] has as its system human esophageal squamous 81T/VGH xenograft tumor. Put plainly: Tumor size in animals grafted with 81T/VGH cancer cells. The conditions noted are these: FIG. 1. Format: in vivo, Athymic BALB/c-nu nude mice. The procedure: For inoculated tumor model, 1×10^5 81T/VGH cells were injected subcutaneously to lab animals to generate s.c. tumors (5×10^5 cells per injection) on day 1. The needle hole was sealed with an electric coagulator (Aaron, Petersburg, Fla., USA) immediately after the withdrawal of the needle to avoid leakage of the injected substance. The incision was subsequently sutured.
Results are depicted in FIGS. 1 to 3, respectively.

In series [3] the test system is human chronic myelogenous leukemia (CML) K562 cells. Put plainly: MTT cell viability, growth inhibition on chronic myelogenous leukemia cells. Format: cell-based. The conditions noted are these: for Inhibition (%): 10 μM, K562 cells; for ex vivo growth of CML cells suppressed: about 10 μM, time not stated. The procedure: as §1, §2
Effects of the compounds of formula (I) or (II) of this disclosure, particularly, EN 22, EN 26, and EN 28, on K562 cells were assessed by cell viability analysis in accordance with procedures described above.

Series [4] in a line: Body weight of tumor-bearing treated animals. Particulars: EN 22 alone, FIG. 2.
Protocol: (§7) Athymic BALB/c-nu nude mice (4 weeks old) were obtained from the National Laboratory Animal Center (Taipei, Taiwan) and were kept in a pathogen-free facility with ad libitum access to water and laboratory chow. A solution of 81T/VGH cells was injected into the subcutaneous tissue to establish a xenograft tumor.
Tumor sizes were measured using calipers, and tumor volume was calculated using the formula: volume=width^2×length×0.52.
(§8) Mice were inoculated with esophageal squamous tumor cells in accordance with the procedures described above. For in vivo therapy, animals were given 2 mg/Kg cisplatin intraperitoneally, in the presence or absence of 20 mg/Kg EN 22, which was given orally, for a period of at least 4 weeks. Tumor size, body weight, white blood cell count, and liver function of each animal were then measured respectively at the indicated time.
Series [5] in a line: White blood cell counts, liver or kidney function of treated animals. Particulars: EN 22 25 or 50 mg/Kg, FIG. 3.
Protocol: as §7
After treatment, mice were sacrificed and their white blood cells (WBC) counts were measured. Tumor burdens were determined by the total volume of all the tumor nodules with diameter greater than 3 mm.
as §8
Series [6] has as its system human erythroleukemia (HEL) cells. Nature of the series: In vitro growth inhibition of HEL cells. Format: cell-based. The protocol:
as §1, §2

A further series relates to K562 cells. Put plainly: Megakaryocyte formation, morphology by Liu's staining, K562. Format: cell-based, human. Particulars: 10 μM, 9 days, FIG. 6. The procedure:
(§3) Cells were transferred to a glass coverslide and covered with solution A (0.5 g of methylene blue and 1.7 g of Eosin yellow dissolved in 1,000 ml of ethanol). After 45 seconds, solution B (1.3 g of azure, 1.4 g of methylene blue, 23.38 g of Na2HPO4, 6.5 g of KH2PO4, dissolved in 1,000 ml of distilled water) was added in the proportion of 2 parts of B to 1 part of A. Mixed the solutions well by blowing the surface. The slide was left standing for 90 seconds and then washed off the staining solution rapidly by running water. The morphology of stained cells was then examined by observation under microscope.
(§4) Megarkaryocytopoiesis is a process by which bone marrow progenitor cells develop into mature megakaryocytes, which in turn produce platelets required for normal hemostasis.

Series [7] has as its system HEL cells. Put plainly: Megakaryocyte formation, morphology by Liu's staining, HEL. It is filed as cell-based, human. The conditions noted are these: 10 μM, 5 days, FIG. 7. The protocol:
as §3, §4

In series [8] the test system is HEL cells. Put plainly: Cell cycle analysis by flow cytometry. The conditions noted are these: FIG. 8. Format: cell-based, human. The protocol:
Cultured cells with or without pre-treatment of the compounds of this invention (i.e., the compound of formula (I) or (II)) were harvested from the cultured media and fixed by incuating with 75% iced cold ethanol at 4° C. for at least over night. The fixed cells were then warmed up to room temperature and treated with RNAase A for about 30 min. Precipitated cells were collected by centrifugation and re-suspended in a buffer solution containing propidium iodine (20 μg/ml) before being subject to flow cytometry analysis, where cell numbers at respective cell cycles were determined.
On the technique in general: In flow cytometry, cells or beads pass a laser one at a time.

Series [9] relates to stat3 and phosphorylated stat3. Put plainly: Immunoblot of stat3 and phosphorylated stat3 in K562 cells. Format: cell-based, human. The conditions noted are these: compared with control, FIG. 9. The protocol:
(§5) Cultured cells were lysed by use of well known lysing buffer, and total amount of proteins were determined by Bradford method. The extracted raw proteins (about 50-100 μg) were loaded to […] sodium dodecyl sulfate polyacrylamide gel, and proteins therein were separated by electrophoresis. The separated proteins were then transferred to nitrocellulose membrane and non-specific binding was removed by TBST buffer (0.8% NaCl, 0.02% KCl, 25 mM Tris-HCl/pH 8.0 and 0.1% Tween-20) containing 4% skim milk. Antibodies including p-Jak2, Jak2, p-stat3-2, stat3, p-stat5, stat5, and GAPDH (purchased from Transduction Laboratories, Lexington, Ky., USA), were respectively dissolved in TBST buffer containing 2% skim milk and incubated with the separated protein bands at 4° C. for at least over night; followed by incubation with horseradish conjugated secondary antibodies at room temperature for about 30 min, and then detected by ECL chemiluminesance detection kit (Amersham Pharmacia Biotech, US).
(§6) The induction of K562 cells or HEL cells to form megakaryocytes was further investigated by measuring the expressed level of its regulatory proteins such as, stat3 and phosphorylated stat3.
(In general: Immunoblotting shows a protein as a band on a membrane.)

For series [10], the system named is stat3 and phosphorylated stat3. Nature of the series: Immunoblot of stat3 and phosphorylated stat3 in HEL cells. Format: cell-based, human. The conditions noted are these: compared with control, FIG. 9. The protocol:
as §5, §6

In series [11] the test system is HEL cells. Put plainly: STAT3 RNAi assay, megakaryocytic differentiation after Stat3 knockdown. Format: cell-based, human. Particulars: Stat3 small interference RNA, FIG. 10. From the text: The murine stat3 target sequence from positions 134 to 158 (5′-TGGCCCAATGGAATCAGCTACAGCA-3′ (SEQ ID NO: 1)) was selected for the preparation of stat3 siRNA (5′-UGGCCCAAUGGAAUCAGCUACAGCA-3′ (SEQ ID NO: 2)). Scrambled RNAs were employed as a negative control and were synthesized by PCR-derived siRNA expression cassettes according to the manufacturer's instructions and were then cloned into pSEC™ hygro plasmid (Ambion).
[…] HEL cells were transfected with the plasmids (i.e., plasmids containing the nucleic acid for the stat3 siRNA or scramble RNAs) described above with the aid of the lipofectamine 2000 (Invitrogen, Carisbad, Calif. USA). Specifically, 5 μg pSEC™ hygro plasmid contained murine stat3 siNAs and 9 μl lipofectamine 2000 were allowed to form complexes in a period of 25 min at room temperature in antibiotic-free DMEM medium. The complexes were then added to HEL cells maintained and cultured in 6-well dishes and further incubated for another 24 hrs. For the selection of cells with high expression rate of siRNA, stable clones of murine stat3 siRNA expressed cells and negative control siRNA (i.e., scrambled RNA) were selected by use of 500 μg/ml hygromycin contained medium, and the selected clones were maintained in 250 ? μg/ml hygromycin contained medium. […]

In series [12] the test system is CD61 and CD235a in HEL cells. Put plainly: Flow cytometric analysis of CD61 and CD235a expression. Particulars: 5 μM. It is filed as cell-based, human. An excerpt:
The induction of megakaryocytic differentiation may also be confirmed by the measurement of the differentiation markers CD61 and CD235a expressed on the erythrocyte membrane during the differentiation stage.

The test system of the next series is normal bone marrow cells. Nature of the series: Induction and proliferation of megakaryocytes from normal bone marrow cells. It is filed as cell-based. Particulars: 1.25 μM, FIG. 12.

Molecules are shown by their SMILES.

Turning to `CC1C(O)CCC2C1(C)CCC1C2(C)CCC2(C)C3CC(C)(C)CCC3(C)CCC12C` (stereo not drawn) [EN 22, 3β-Friedelinol], the “Inhibition (%)” value in [1] (1 μM, 24 hrs) is listed as 51.98%; in series [1] (1 μM, 48 hrs), 41.42%; in [1] (10 μM, 24 hrs) it was 58.03%; in series [1] (10 μM, 48 hrs), 58.61%; in series [3] (48 hrs), 39.32%; in series [3] (72 hrs) it was 45.38%. In addition, the “ex vivo growth of esophageal cancerous cells inhibited” value is reported as “about 50%” in series [1] (about 1 μM) and “about 60%” in series [1] (about 10 μM). In addition, the “tumor size (growth of tumor)” value in series [2] (EN 22 orally, 20 and 50 mg/Kg) was “able to suppress the growth of the tumor in a dose dependent manner”. The “ex vivo growth of CML cells suppressed” value in series [3] is reported as “about 45%”. Further, in series [4], the body weight loss result is recorded as “free from the “weight lost” problem”. Also, the “white blood cell (WBC) counts” value in series [5] was “did not affect the number of WBC”.
`CC1(C)CC[C@]2(C)CC=C3[C@]4(C)CC[C@H]5C(C)(C)[C@@H](O)CC[C@]5(C)[C@H]4CC[C@@]3(C)[C@@H]2C1` [EN 24, 3β-Taraxerol]: the “Inhibition (%)” value in series [1] (1 μM, 24 hrs) was found to be 49.15%; in series [1] (1 μM, 48 hrs) it was 43.47%; in [1] (10 μM, 24 hrs), 63.99%; in series [1] (10 μM, 48 hrs), 57.10%.
`CC1C(O)CCC2C1(C)CCC1C2(C)CCC2(C)C3CC(C)(C)CCC3(C)CCC12C` (stereo not drawn) [EN 25, 3α-Friedelinol]: the “Inhibition (%)” value was 49.45% in series [1] (1 μM, 24 hrs); 39.99% in series [1] (1 μM, 48 hrs); 61.74% in series [1] (10 μM, 24 hrs); 62.55% in series [1] (10 μM, 48 hrs). Moreover, the “ex vivo growth of esophageal cancerous cells inhibited” value in series [1] (about 1 μM) is recorded as “about 50%”; in [1] (about 10 μM) it was “about 60%”.
On to `CC=C(C)C(=O)OC1C(OC(C)=O)C(C)=CC23OC2(CC(C)C3OC(C)=O)C(=O)C(C)C(OC(C)=O)C2C1C2(C)C` (centres unmarked) [EN 26, 3,7,12-O-Triacetyl-8-O-tigioylingol], for which the “Inhibition (%)” value in series [3] (24 hrs) is recorded as 12.74%; in series [3] (48 hrs), 30.38%; in series [3] (72 hrs), 42.35%. Also, the “ex vivo growth of CML cells suppressed” value in series [3] is on record as “about 40%”.
Consider `CC=C(C)C(=O)OC1C(C)=CC23OC2(CC(C)C3OC(C)=O)C(=O)C(C)C(OC(C)=O)C2C(C1OC)C2(C)C` (centres unmarked) [EN 28, 3,12-O-Diacetyl-7-O-angeloyl-8-methoxyingol], for which the “Inhibition (%)” value in series [3] (48 hrs) is reported as 44.85%. Besides, in series [3], the “ex vivo growth of CML cells suppressed” value is on record as “about 50%”. In addition, the entries for the “in vitro growth of HEL cells inhibited” value in series [6] (5 μM), in [6] (10 μM) and in series [6] (about 2.5 μM) were “about 55%”, “about 60%” and “about 40%”, respectively. Besides, in the series on K562 cells, the “morphology change, formation of megakaryocytes” value was “cells started to fuse and form megakaryocytes”. Moreover, the “morphology change, differentiation into megakaryocytes” value with HEL cells [7] is reported as “induces the differentiation of HEL cells into megakaryocytes”. Also, in the series with HEL cells [8], the cell cycle analysis result is “capable of inducing the generation of new population of cells”. The “level of phosphorylated stat-3” value in series [9] and in [10] was “increased” each time. The “level of stat3” value in [9] and in series [10] was “increased” throughout. In the series with HEL cells [11], the “induction of megakaryocytic differentiation after knockdown of Stat3” value is “partially reversed”. The “effect of Stat3 knockdown on CD61 and CD235a changes” value in series [12] (HEL cells with siStat3, FIG. 11) is recorded as “not antagonized”. For the same compound, the CD61 expression result in series [12] (HEL cells, FIG. 11) is listed as “up-regulation”. Besides, the CD235a expression entry in [12] (HEL cells, FIG. 11) is listed as “down-regulation”. Moreover, the “proliferation and differentiation into megakaryocytes” value in the series on normal bone marrow cells was “capable of inducing the proliferation and subsequently, the differentiation of the proliferated normal bone marrow cells into megakaryocytes”.
As to `N.N.[Cl][Pt][Cl]` [cisplatin, reference compound], the “tumor size (growth of tumor)” value in series [2] (cisplatin 2 mg/Kg intraperitoneally) is listed as “capable of suppressing the growth of tumor during the entire treatment period”.
